Reference: patent US8658591B2, “Multi-LEU peptides and analogues thereof as selective PACE4 inhibitors and effective antiproliferative agents” (priority 2008, dated 2014)

Tests used:
Format in all cases: biochemical
PC2 = target: T1, PC2 (Homo sapiens, UniProt P16519); experiment: Enzyme inhibition assay, fluorogenic substrate, PC2
T1 sequence (P16519 110-638): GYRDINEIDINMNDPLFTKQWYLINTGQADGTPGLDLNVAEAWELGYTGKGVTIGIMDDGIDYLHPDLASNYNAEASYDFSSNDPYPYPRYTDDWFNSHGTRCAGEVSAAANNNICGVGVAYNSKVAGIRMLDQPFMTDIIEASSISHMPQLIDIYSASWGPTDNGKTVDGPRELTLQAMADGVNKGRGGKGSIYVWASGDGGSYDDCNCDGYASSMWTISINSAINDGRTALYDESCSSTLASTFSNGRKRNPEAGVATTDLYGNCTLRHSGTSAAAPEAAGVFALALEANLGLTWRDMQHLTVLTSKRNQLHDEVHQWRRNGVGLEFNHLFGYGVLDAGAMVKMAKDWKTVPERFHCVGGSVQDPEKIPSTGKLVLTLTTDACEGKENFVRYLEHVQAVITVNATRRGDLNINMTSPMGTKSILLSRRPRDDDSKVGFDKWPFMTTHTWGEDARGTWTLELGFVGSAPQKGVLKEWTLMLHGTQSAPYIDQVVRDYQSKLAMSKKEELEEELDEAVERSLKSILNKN
Experimental: (§1) Enzyme inhibition assays for furin (FIG. 5D) were performed in 100 mM Hepes pH 7.5, 1 mM CaCl2, 1 mM β-mercaptoethanol, 0.5 μg/μL BSA. Assays for PC2 (FIG. 5E) were performed in 20 mM Bis-Tris pH 5,7, 1 mM CaCl2, 0.1% Brij-30. Assays for PC1/3, PC4, PACE4, PC5/6 and PC7 (FIGS. 5F, G, A, B and C respectively) were performed in 20 mM Bis-Tis pH 6.5, 1 mM CaCl2. All assays were performed with the substrate pyroGlu-Arg-[…]-Lys-Arg-methyl-coumaryl-7-amide (SEQ ID NO: 33) (PyrRTKR-MCA (SEQ ID NO: 34)) (Bachem, CA) at 100 μM for furin, PC1/3, PC4, PACE4 and PC5/6, 200 μM for PC2 and 250 μM for PC7. Assays were carried out at 37° C. for 30-60 min and real-time fluorescence was measured with an excitation wavelength of 370 nm and an emission wavelength of 460 nm using a Gemini XS™ 96-well spectrofluorometer and SoftMaxPro4™ software (Molecular Devices, CA). Inhibitory peptides were added to the enzymes at decreasing concentrations from 100 μM to 50 nM and incubated 5 minutes prior to the addition of substrate.

PACE4 = target: T2, PACE4 (Homo sapiens, UniProt P29122); experiment: Enzyme inhibition assay, fluorogenic substrate, PACE4
T2 sequence (P29122 150-969): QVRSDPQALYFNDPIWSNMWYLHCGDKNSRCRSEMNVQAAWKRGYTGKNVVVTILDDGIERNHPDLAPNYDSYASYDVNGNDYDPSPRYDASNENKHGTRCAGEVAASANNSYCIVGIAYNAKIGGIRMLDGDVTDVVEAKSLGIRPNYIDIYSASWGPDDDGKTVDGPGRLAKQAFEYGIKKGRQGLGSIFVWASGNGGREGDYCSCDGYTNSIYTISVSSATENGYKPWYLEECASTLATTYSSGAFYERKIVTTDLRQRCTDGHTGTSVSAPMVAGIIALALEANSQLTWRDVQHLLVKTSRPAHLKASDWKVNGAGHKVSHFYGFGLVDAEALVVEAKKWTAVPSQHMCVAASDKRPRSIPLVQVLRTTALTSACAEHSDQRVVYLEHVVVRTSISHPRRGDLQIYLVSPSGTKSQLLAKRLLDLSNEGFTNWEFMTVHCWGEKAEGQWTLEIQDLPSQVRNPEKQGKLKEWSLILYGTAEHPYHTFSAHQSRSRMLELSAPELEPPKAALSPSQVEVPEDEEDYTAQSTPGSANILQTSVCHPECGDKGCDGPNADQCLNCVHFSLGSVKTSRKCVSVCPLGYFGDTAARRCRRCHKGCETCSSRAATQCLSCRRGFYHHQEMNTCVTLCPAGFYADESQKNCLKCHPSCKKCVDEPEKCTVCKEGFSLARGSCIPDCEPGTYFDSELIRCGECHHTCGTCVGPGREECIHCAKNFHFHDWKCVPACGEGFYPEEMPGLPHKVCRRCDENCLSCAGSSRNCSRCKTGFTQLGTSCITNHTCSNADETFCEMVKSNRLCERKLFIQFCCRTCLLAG
Text: Those skilled in the art can easily determine PACE4 activity using routine experimentation. For example, the activity assay of PACE4 can be carried out in 96 well plates, and includes the use of a fluorogenic substrate, namely PyrRTKR-AMC (SEQ ID NO: 30) (AMC is amino-methyl-coumarin). The substrate and the purified enzyme are placed in the wells, and depending on the units of enzyme present, the AMC moiety will be cleaved at a certain rate, such a pmoles/sec. The resultant free AMC is now fluorescent and can be detected with a spectrofluorometer. The addition of inhibitors to the assay will yield progress curves that have lesser slopes. Based on these changes the inhibitory constants (Ki) is calculated (Fugere et al., 2002, J. Biol. Chem., 277:7648-56).
as §1

PC1/3 = target: T3, PC1/3 (Homo sapiens, UniProt P29120); experiment: Enzyme inhibition assay, fluorogenic substrate, PC1/3
T3 sequence (P29120 111-753): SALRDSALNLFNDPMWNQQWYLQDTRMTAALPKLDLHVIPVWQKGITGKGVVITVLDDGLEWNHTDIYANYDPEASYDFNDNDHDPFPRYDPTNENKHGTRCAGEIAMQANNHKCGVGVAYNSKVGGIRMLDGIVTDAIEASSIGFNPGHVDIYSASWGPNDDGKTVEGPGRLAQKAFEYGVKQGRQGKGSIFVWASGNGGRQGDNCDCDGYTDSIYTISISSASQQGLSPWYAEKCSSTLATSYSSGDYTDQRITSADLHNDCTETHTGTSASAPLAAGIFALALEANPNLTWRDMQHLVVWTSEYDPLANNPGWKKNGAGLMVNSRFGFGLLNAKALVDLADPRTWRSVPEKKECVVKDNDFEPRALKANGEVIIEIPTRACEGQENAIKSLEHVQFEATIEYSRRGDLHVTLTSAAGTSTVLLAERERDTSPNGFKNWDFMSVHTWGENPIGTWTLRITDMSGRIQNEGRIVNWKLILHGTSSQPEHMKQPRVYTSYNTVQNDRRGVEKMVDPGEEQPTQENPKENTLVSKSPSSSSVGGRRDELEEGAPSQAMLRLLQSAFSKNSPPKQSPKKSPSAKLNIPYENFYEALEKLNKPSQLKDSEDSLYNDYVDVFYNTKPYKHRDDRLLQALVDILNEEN
Experimental: as §1

RVKR [RVKR—NH2, RVKR-NH2]
poor micromolar inhibitor: inhibition potency on PC2, in words (PC2) | inhibition potency on PACE4, in words (PACE4) | inhibition potency on PC1/3, in words (PC1/3)
